What all share (experiment): KINOMEscan
Format in all cases: binding
Common to all, as to details: read-out: % control activity remaining

Experiment [1] has as its target T1, ABL1(M351T)-phosphorylated (Homo sapiens, UniProt P00519, M351T).
T1 construct: purchased Eurofins DiscoverX KINOMEscan

The target of the next experiment is T2, BMX (Homo sapiens, UniProt P51813).
T2 construct: purchased Eurofins DiscoverX KINOMEscan
T2 sequence (P51813 1-675): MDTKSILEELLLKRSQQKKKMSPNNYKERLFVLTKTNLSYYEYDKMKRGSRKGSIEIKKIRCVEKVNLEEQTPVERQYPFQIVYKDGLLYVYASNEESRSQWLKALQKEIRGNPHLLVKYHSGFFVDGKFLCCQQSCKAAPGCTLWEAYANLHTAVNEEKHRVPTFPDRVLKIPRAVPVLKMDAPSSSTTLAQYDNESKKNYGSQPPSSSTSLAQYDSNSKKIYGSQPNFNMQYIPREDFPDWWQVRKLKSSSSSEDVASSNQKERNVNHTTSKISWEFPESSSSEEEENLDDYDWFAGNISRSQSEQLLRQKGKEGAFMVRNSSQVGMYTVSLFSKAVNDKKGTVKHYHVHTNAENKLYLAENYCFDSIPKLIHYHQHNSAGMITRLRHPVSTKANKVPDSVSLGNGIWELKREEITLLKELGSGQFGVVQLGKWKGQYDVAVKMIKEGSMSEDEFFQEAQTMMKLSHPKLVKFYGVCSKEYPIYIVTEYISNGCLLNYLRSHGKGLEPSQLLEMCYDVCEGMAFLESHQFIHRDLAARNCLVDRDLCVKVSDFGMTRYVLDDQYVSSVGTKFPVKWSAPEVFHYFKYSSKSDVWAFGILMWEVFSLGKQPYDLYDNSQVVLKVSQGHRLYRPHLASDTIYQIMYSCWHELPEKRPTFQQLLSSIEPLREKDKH

In a further experiment the target is T3, CLK4 (Homo sapiens, UniProt Q9HAZ1).
T3 construct: purchased Eurofins DiscoverX KINOMEscan
T3 sequence (Q9HAZ1 whole entry): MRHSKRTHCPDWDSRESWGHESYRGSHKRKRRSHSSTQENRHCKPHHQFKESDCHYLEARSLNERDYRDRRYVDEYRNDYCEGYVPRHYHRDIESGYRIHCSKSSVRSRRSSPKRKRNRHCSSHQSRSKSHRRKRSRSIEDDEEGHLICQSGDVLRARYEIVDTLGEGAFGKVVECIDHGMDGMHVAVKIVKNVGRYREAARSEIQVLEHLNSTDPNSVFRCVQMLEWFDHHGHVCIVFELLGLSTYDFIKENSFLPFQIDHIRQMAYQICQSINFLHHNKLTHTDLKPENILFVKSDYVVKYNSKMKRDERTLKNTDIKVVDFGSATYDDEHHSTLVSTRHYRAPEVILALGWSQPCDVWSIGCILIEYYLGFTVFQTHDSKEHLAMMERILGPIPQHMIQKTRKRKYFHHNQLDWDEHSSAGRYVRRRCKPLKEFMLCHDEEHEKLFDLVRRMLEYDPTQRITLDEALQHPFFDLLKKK

For another experiment, the target named is T4, DYRK1B (Homo sapiens, UniProt Q9Y463).
T4 construct: purchased Eurofins DiscoverX KINOMEscan
T4 sequence (Q9Y463 whole entry): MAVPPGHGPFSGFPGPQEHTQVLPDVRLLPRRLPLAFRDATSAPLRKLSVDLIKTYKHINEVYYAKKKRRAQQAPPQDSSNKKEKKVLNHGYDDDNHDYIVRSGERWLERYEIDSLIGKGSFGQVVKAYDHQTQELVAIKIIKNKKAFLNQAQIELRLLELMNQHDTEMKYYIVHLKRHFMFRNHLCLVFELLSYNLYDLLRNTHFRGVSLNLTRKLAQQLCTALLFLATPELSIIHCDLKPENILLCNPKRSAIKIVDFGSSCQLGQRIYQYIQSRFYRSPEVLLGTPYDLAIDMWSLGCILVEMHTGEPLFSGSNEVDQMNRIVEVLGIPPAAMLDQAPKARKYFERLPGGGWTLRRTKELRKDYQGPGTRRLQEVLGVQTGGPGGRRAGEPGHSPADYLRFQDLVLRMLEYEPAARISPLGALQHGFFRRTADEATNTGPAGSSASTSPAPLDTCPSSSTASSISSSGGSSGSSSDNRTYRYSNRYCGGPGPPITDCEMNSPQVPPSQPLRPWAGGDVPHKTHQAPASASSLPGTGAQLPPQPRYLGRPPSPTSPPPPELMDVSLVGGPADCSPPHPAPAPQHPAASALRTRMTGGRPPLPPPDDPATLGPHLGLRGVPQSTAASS

Another experiment has as its target T5, ERBB4 (Homo sapiens, UniProt Q15303).
T5 construct: purchased Eurofins DiscoverX KINOMEscan

A further experiment concerns the target T6, LOK (Homo sapiens, UniProt O94804).
T6 construct: purchased Eurofins DiscoverX KINOMEscan

The target in another experiment is T7, NEK10 (Homo sapiens, UniProt Q6ZWH5).
T7 construct: purchased Eurofins DiscoverX KINOMEscan
T7 sequence (Q6ZWH5 1-1172): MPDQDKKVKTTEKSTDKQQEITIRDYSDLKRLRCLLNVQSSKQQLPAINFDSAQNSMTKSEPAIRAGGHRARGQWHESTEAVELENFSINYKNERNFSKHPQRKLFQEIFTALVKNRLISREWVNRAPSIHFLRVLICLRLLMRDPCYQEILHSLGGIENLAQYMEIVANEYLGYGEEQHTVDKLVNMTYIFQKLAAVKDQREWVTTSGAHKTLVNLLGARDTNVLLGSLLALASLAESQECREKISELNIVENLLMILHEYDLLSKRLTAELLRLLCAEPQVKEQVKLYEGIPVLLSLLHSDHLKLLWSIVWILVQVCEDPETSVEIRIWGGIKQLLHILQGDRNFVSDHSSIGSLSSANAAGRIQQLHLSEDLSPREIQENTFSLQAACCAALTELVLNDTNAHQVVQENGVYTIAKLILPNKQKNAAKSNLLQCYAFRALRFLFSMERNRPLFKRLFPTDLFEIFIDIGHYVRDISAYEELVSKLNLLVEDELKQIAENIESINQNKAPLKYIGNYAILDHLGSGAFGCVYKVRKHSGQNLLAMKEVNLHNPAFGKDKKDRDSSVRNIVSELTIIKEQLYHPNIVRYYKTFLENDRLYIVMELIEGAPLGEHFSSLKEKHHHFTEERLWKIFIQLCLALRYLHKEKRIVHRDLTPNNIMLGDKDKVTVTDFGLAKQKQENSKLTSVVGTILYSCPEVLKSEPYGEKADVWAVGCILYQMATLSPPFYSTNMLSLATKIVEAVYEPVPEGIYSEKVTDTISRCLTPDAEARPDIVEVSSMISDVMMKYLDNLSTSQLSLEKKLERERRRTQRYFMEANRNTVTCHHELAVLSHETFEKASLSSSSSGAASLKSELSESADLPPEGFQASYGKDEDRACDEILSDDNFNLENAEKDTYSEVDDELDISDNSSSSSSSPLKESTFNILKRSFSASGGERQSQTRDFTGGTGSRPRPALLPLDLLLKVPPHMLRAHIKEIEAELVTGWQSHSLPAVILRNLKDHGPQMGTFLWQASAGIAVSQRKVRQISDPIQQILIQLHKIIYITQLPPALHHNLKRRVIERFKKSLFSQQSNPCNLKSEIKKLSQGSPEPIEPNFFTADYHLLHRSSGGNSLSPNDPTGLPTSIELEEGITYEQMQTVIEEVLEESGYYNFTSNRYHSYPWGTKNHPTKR

In the experiment “PIK3CA(E542K)” the target is T8, PIK3CA(E542K (Homo sapiens, UniProt P42336, E542K)).
T8 construct: purchased Eurofins DiscoverX KINOMEscan
T8 sequence (P42336 whole entry E542K): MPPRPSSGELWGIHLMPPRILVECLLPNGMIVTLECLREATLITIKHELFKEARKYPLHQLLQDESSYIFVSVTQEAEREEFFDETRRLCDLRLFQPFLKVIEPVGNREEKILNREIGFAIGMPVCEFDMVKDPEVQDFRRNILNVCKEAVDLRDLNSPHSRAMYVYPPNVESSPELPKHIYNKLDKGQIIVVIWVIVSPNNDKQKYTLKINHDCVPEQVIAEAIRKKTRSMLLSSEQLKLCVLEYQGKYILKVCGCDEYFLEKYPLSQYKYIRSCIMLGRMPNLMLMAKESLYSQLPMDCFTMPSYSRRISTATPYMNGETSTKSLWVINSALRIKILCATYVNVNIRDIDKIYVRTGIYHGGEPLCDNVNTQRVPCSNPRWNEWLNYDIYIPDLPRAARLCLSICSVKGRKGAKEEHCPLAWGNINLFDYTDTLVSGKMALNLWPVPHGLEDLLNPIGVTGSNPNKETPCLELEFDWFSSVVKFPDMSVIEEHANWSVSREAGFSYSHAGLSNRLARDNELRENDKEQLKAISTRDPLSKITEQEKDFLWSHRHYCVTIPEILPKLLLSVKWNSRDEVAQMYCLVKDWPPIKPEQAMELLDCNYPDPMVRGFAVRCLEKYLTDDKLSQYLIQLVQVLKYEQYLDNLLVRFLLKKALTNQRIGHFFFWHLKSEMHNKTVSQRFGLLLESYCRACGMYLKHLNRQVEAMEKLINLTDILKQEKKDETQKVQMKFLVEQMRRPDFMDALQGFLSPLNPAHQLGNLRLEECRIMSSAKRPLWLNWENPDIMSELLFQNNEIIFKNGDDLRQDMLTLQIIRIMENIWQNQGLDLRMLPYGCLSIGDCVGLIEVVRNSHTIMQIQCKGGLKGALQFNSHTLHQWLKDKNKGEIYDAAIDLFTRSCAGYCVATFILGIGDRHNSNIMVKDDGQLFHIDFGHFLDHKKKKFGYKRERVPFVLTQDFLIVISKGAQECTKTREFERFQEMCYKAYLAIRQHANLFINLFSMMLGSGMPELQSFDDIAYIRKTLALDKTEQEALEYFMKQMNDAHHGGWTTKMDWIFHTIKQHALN

Experiment [2] deals with T9, RPS6KA5(Kin.Dom.1-N-terminal) (Homo sapiens, UniProt O75582).
T9 construct: RPS6KA5(Kin.Dom.1-N-terminal); purchased Eurofins DiscoverX KINOMEscan
T9 sequence (O75582 49-318 limits assumed): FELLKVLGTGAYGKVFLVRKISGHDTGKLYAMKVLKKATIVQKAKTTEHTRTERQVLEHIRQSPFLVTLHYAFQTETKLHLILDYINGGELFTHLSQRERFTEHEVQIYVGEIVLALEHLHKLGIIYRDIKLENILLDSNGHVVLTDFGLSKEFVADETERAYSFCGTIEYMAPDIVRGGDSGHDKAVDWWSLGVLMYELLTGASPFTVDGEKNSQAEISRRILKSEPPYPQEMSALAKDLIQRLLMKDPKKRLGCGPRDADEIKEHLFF

T5 sequence (Q15303 26-1308): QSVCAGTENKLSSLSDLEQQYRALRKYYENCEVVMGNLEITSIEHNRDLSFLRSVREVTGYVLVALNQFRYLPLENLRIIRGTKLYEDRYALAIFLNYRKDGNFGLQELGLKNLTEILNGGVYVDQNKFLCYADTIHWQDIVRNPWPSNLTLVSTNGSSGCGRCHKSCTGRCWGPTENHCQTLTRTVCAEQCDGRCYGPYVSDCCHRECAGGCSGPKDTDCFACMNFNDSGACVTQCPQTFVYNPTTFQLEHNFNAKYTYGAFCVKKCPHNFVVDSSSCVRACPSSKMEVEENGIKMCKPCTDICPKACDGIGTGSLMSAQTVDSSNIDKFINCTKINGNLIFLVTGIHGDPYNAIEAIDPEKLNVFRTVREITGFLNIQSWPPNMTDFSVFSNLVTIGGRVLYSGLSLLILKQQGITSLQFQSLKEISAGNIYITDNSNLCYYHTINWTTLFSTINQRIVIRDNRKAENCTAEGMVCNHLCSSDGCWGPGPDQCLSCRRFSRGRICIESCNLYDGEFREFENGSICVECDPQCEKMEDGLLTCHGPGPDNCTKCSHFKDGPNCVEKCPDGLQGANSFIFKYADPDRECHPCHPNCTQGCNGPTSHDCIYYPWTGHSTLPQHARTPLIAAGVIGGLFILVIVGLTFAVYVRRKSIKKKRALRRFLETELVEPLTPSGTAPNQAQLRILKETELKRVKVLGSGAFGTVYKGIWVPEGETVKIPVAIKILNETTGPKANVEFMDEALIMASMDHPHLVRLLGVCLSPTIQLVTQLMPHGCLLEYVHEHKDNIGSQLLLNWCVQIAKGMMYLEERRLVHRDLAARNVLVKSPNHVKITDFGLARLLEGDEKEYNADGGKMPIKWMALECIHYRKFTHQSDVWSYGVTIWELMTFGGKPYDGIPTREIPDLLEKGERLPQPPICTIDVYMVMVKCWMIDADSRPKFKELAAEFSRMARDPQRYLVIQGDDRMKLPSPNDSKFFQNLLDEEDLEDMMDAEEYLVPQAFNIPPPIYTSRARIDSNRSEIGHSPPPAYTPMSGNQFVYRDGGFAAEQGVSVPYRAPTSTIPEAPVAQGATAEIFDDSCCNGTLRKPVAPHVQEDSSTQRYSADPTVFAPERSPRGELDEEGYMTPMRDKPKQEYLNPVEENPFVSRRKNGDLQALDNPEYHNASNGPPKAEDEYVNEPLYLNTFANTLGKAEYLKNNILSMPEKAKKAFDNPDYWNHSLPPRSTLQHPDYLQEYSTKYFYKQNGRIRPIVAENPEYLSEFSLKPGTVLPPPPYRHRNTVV
T6 sequence (O94804 whole entry): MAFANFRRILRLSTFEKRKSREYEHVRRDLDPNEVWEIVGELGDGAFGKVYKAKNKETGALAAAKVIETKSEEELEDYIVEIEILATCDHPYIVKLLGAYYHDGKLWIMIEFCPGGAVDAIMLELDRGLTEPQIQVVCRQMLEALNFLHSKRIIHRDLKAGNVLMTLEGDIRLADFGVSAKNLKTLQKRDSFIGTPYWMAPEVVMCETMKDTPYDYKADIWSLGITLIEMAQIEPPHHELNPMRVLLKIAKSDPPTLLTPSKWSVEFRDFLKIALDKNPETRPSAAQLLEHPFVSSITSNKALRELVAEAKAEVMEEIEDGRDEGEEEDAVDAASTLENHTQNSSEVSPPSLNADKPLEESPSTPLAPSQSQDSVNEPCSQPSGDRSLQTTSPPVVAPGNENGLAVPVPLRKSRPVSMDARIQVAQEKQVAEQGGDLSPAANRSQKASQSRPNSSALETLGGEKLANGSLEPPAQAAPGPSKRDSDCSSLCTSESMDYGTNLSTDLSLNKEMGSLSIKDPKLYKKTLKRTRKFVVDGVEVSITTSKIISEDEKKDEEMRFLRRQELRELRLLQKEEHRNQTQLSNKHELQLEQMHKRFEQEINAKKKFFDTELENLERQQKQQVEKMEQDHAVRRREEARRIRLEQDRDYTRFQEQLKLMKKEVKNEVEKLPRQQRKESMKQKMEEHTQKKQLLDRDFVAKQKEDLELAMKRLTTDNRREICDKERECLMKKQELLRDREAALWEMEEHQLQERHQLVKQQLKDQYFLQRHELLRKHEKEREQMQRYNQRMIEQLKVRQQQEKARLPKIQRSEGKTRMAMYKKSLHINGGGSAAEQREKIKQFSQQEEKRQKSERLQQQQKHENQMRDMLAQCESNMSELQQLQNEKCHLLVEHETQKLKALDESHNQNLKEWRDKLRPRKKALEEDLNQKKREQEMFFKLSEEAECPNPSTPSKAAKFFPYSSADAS

On to `Clc1cc(NCC2CC2)c2ncc(-c3ccc4[nH]ncc4c3)n2n1` [compound 2, 6-Chloro-N-(cyclopropylmethyl)-3-(1H-indazol-5-yl)imidazo[1,2-b]pyridazin-8-amine], for which the remaining binding at 1 µM in [1] was 91%; at BMX it was 96%; at CLK4, 1.5%; at DYRK1B it was 1%; on ERBB4, 99%; at LOK it was 100%. Besides, the values for the remaining binding at 1 µM (at NEK10; at PIK3CA(E542K); in experiment [2]) were 92%, 72% and 100%, respectively.
On to `O=C(CN1CCOCC1)N[C@H]1CC[C@H](Nc2cc(Cl)nn3c(-c4ccc5[nH]ncc5c4)cnc23)CC1` [compound 26], for which the remaining binding at 1 µM in [1] came to 57%; on BMX, 92%; on CLK4 it was 2.1%; at DYRK1B, 0.85%; at ERBB4, 100%; at LOK, 100%. The remaining binding at 1 µM turned out to be 72% on NEK10, 93% on PIK3CA(E542K) and 99% in experiment [2].
In the case of `CN1CCC(CNc2cc(Cl)nn3c(-c4cc5nc(Nc6ccccc6)[nH]c5cc4F)cnc23)CC1` [compound 31, 6-Chloro-3-(6-fluoro-2-(phenylamino)-1H-benzo[d]imidazol-5-yl)-N-((1-methylpiperidin-4-yl)methyl)imidazo[1,2-b]pyridazin-8-amine], the remaining binding at 1 µM turned out to be 78% in experiment [1]; 100% on BMX; 20% at CLK4; 63% on DYRK1B; 100% on ERBB4; 91% at LOK. Also, the results for the remaining binding at 1 µM (on NEK10; at PIK3CA(E542K); in experiment [2]) were 100%, 65% and 100%, respectively.
